# Data: patent publication US11878975B2, “Substituted indole compounds useful as TLR inhibitors” (BRISTOL-MYERS SQUIBB COMPANY, priority 2017, dated 2024)
# Columns and labels:
# Type in all cases: cell-based
# human TLR7 = target: T1, human TLR7 (Homo sapiens, UniProt Q9NYK1); test: TLR7 inhibition reporter assay (HEK-Blue cells, SEAP reporter, gardiquimod stimulation); conditions: HEK-Blue cells overexpressing human TLR7, SEAP reporter, gardiquimod 7.5 μM
# T1 construct: host or cells: HEK-Blue cells
# T1 sequence (Q9NYK1 27-1049): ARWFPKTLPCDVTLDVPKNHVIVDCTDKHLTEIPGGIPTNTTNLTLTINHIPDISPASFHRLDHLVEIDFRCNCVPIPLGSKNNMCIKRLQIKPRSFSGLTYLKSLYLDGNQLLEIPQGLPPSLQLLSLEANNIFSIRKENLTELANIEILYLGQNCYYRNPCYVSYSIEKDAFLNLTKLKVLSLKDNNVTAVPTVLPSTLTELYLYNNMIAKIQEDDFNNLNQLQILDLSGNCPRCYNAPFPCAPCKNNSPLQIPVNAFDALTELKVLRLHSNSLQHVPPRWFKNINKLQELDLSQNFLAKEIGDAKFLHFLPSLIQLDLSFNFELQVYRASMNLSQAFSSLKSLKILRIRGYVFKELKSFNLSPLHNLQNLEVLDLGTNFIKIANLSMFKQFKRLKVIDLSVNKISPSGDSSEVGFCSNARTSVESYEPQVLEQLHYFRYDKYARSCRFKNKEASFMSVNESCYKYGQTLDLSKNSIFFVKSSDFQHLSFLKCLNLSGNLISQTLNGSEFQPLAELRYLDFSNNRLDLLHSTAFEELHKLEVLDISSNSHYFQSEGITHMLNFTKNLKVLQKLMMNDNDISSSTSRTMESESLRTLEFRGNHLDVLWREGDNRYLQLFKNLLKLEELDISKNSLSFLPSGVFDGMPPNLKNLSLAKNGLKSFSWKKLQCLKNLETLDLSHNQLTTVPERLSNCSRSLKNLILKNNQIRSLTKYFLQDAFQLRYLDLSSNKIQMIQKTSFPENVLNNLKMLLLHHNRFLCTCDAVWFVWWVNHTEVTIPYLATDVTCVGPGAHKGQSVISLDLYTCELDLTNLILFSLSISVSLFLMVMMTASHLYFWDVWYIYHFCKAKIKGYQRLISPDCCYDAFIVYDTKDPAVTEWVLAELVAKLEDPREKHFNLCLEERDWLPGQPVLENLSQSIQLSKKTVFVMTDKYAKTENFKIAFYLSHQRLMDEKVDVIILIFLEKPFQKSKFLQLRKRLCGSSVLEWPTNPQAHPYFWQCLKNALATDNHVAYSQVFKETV
# How it was run: (§1)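 Dose range 0.05 nM–50 μM; 30 min preincubation, RT. Agonists: TLR7 gardiquimod 7.5 μM, TLR8 R848 15.9 μM, TLR9 ODN2006 5 nM. 22 h, 37 °C, 5% CO2. SEAP (IFN-β minimal promoter with NF-κB/AP-1 sites) via colorimetric detection medium; % inhibition vs agonist+DMSO and reference-inhibitor wells.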
# human TLR8 = target: T2, human TLR8 (Homo sapiens, UniProt Q9NR97); test: TLR8 inhibition reporter assay (HEK-Blue cells, SEAP reporter, R848 stimulation); conditions: HEK-Blue cells overexpressing human TLR8, SEAP reporter, R848 15.9 μM
# T2 construct: host or cells: HEK-Blue cells
# T2 sequence (Q9NR97 27-1041): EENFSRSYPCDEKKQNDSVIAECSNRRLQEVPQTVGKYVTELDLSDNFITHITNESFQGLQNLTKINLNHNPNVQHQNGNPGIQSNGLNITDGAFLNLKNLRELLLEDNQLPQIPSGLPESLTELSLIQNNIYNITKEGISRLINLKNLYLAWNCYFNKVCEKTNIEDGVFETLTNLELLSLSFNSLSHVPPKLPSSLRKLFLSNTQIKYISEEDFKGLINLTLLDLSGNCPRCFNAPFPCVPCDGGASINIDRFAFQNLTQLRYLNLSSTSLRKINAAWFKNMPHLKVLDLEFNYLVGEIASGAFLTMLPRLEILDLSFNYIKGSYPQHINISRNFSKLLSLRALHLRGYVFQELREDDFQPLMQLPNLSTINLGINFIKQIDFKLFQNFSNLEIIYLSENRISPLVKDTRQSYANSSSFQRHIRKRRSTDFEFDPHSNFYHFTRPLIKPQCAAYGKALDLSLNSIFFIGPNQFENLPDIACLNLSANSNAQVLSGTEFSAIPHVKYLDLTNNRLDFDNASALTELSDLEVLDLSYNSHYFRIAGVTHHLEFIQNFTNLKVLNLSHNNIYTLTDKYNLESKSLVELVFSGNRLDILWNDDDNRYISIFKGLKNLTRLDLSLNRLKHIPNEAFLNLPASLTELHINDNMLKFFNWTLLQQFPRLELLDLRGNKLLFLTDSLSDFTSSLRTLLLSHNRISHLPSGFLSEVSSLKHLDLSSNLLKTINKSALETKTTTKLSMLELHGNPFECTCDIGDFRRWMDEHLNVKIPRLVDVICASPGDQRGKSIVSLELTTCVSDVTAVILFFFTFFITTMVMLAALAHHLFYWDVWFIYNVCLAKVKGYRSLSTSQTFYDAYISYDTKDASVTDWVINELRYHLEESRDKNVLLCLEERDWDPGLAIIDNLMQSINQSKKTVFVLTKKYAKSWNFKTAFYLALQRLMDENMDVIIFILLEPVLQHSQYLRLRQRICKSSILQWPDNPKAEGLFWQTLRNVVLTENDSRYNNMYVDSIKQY
# How it was run: as §1
# human TLR9 = target: T3, human TLR9 (Homo sapiens, UniProt Q9NR96); test: TLR9 inhibition reporter assay (HEK-Blue cells, SEAP reporter, ODN2006 stimulation); conditions: HEK-Blue cells overexpressing human TLR9, SEAP reporter, ODN2006 5 nM
# T3 construct: host or cells: HEK-Blue cells
# T3 sequence (Q9NR96 26-1032): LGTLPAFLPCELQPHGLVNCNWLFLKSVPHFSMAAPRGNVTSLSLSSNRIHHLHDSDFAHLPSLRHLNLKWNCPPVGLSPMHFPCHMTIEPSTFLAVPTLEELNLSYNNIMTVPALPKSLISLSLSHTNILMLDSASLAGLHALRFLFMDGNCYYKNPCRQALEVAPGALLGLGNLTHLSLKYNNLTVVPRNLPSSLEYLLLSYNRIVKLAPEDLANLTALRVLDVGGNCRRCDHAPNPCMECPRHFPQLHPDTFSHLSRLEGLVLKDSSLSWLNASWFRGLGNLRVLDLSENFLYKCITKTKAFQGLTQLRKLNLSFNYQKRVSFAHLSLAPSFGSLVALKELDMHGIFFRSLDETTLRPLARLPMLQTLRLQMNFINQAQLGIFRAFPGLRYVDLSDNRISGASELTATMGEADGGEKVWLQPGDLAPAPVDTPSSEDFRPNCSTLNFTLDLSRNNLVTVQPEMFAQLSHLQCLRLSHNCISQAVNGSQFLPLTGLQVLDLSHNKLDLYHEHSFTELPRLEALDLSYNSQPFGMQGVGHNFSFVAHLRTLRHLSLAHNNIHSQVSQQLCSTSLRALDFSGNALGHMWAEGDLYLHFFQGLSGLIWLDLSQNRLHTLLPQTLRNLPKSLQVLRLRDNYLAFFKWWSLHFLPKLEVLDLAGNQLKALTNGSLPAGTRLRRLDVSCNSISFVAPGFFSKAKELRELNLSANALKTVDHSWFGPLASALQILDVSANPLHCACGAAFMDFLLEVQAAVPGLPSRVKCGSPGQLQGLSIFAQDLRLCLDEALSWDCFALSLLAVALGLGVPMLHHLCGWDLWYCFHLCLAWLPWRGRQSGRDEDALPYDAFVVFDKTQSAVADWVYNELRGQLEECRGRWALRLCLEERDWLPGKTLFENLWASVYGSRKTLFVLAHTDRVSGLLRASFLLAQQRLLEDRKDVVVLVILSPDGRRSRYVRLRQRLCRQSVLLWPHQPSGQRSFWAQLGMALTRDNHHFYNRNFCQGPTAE
# How it was run: as §1
SMILES,IC50 (human TLR7) [nM],IC50 (human TLR8) [nM],IC50 (human TLR9) [nM]
COc1cc(-c2[nH]c3ccc(C4CN(CCS(C)(=O)=O)C4)cc3c2C(C)C)cn2ncnc12 [Example 265],1,2.9,3420
"CNCC(=O)N1CC(c2ccc3[nH]c(-c4cc(C)c5ncnn5c4)c(C(C)C)c3c2)C1 [Example 267, 1-(3-(3-isopropyl-2-(8-methyl-[1,2,4]triazolo[1,5-a]pyridin-6-yl)-1H-indol-5-yl)azetidin-1-yl)-2-(methylamino)ethan-1-one]",0.96,5.5,2000
"Cc1cc(-c2[nH]c3ccc(C4CN(C5CCOC(C)(C)C5)C4)cc3c2C(C)C)cn2ncnc12 (stereo not drawn) [Example 269, 6-(5-(1-(2,2-dimethyltetrahydro-2H-pyran-4-yl)azetidin-3-yl)-3-isopropyl-1H-indol-2-yl)-8-methyl-[1,2,4]triazolo[1,5-a]pyridine]",5,8.3,3670
Cc1cc(-c2[nH]c3ccc(C4CN(C5CCS(=O)(=O)CC5)C4)cc3c2C(C)C)cc(C)n1 [Example 270],14,20,888
Cc1cc(-c2[nH]c3ccc(C4CN(C5COC5)C4)cc3c2C(C)C)cn2ncnc12 [Example 271],5,22,29100
COc1cc(-c2[nH]c3ccc(C4CN(C)C4)cc3c2C(C)C)cn2ncnc12 [Example 273],28,97,5250
COc1cc(-c2[nH]c3ccc(C4CN(C5COC5)C4)cc3c2C(C)C)cn2ncnc12 [Example 274],1,2.7,3880
"COc1ccc(-c2[nH]c3ccc(C4CCC5CC(C4)N5)cc3c2C(C)C)cc1OC (stereo not drawn) [Example 279, 3-(2-(3.4-dimethoxyphenyl)-3-isopropyl-1H-indol-5-yl)-7-azabicyclo[4.1.1]octane]",37,73,3130
Cc1cc(-c2[nH]c3ccc(C4CNCCO4)cc3c2C(C)C)cn2ncnc12 (stereo not drawn) [Example 283],0.95,1.3,2670
COc1cc(-c2[nH]c3ccc(C4CNCCO4)cc3c2C(C)C)cn2ncnc12 (stereo not drawn) [Example 284],1,0.85,1820
Cc1c(-c2[nH]c3ccc(C4CNCCO4)cc3c2C(C)C)cn2ncnc2c1C (stereo not drawn) [Example 286],1,0.73,5390
"Cc1cc(-c2[nH]c3ccc(C4CN(C5COC5)CCO4)cc3c2C(C)C)cn2ncnc12 (stereo not drawn) [Example 289, 2-(3-isopropyl-2-(8-methyl-[1,2,4]triazolo[1,5-a]pyridin-6-yl)-1H-indol-5-yl)-4-(oxetan-3-yl)morpholine]",9,24,> 50000
Cc1cc(-c2[nH]c3ccc(C4CN(C5COC5)CCO4)cc3c2C(C)C)cn2ncnc12 (stereo not drawn) [Example 290],36,177,> 50000
Cc1cc(-c2[nH]c3ccc(C4CN(CC5(C)COC5)CCO4)cc3c2C(C)C)cn2ncnc12 (stereo not drawn) [Example 291],20,26,> 50000
Cc1cc(-c2[nH]c3ccc(C4CN(CC5(C)COC5)CCO4)cc3c2C(C)C)cn2ncnc12 (stereo not drawn) [Example 292],22,2.8,34200

# These reach a lower IC50 (human TLR7). Values come first.
IC50 (human TLR7) [nM],IC50 (human TLR8) [nM],IC50 (human TLR9) [nM],SMILES
0.31,2.9,1450,"Cc1cc(-c2[nH]c3ccc(C4CN(C(=O)CN(C)C)C4)cc3c2C(C)C)cn2ncnc12 [Example 266, 2-(dimethylamino)-1-(3-(3-isopropyl-2-(8-methyl-[1,2,4]triazolo[1,5-a]pyridin-6-yl)-1H-indol-5-yl)azetidin-1-yl)ethan-1-one]"
0.72,5.9,396,CNCC(=O)N1CC(c2ccc3[nH]c(-c4cc(OC)c5ncnn5c4)c(C(C)C)c3c2)C1 [Example 268]
0.84,2.1,1310,COc1cc(-c2[nH]c3ccc(C4CN(C(C)C)C4)cc3c2C(C)C)cn2ncnc12 [Example 272]
0.38,1.1,4020,"Cc1cc(-c2[nH]c3ccc(C4CNCCO4)cc3c2C(C)C)cn2ncnc12 (stereo not drawn) [Example 281, 2-(3-isopropyl-2-(8-methyl-[1,2,4]triazolo[1,5-a]pyridin-6-yl)-1H-indol-5-yl)morpholine]"
0.66,1,3800,Cc1cc(-c2[nH]c3ccc(C4CNCCO4)cc3c2C(C)C)cn2ncnc12 (stereo not drawn) [Example 282]
0.43,0.56,959,COc1cc(-c2[nH]c3ccc(C4CNCCO4)cc3c2C(C)C)cn2ncnc12 (stereo not drawn) [Example 285]
0.7,0.62,2550,Cc1c(-c2[nH]c3ccc(C4CNCCO4)cc3c2C(C)C)cn2ncnc2c1C (stereo not drawn) [Example 287]
0.61,0.52,3160,Cc1c(-c2[nH]c3ccc(C4CNCCO4)cc3c2C(C)C)cn2ncnc2c1C (stereo not drawn) [Example 288]
